{
  "source": "ChEMBL document CHEMBL3046571",
  "about": "“QSAR of 2,4-diphenyl-1,3-oxazolines for ovicidal activity against the two-spotted spider mite Tetranychus urticae” (2006)",
  "data": [
    {"tested_on": "Tetranychus urticae", "experiment": "Acaricidal activity against Tetranychus urticae (two-spotted spider mite) in compound treated kidney bean leaf assessed as mortality of egg at 24 degC measured after 1 week", "format": "functional", "details": "168 h", "units": {"LC50": "µM"}, "values": [
      {"smiles": "Fc1cccc(F)c1C1=NC(c2ccc(OCC(F)(F)F)cc2)CO1", "note": "(stereo not given)", "LC50": 0.00141},
      {"smiles": "CSc1ccc(C2COC(c3c(F)cccc3F)=N2)cc1", "note": "(stereo not given)", "LC50": 1.62},
      {"smiles": "CCCCCCCc1ccc(C2COC(c3c(F)cccc3F)=N2)c(F)c1", "note": "(stereo not given)", "LC50": 0.00132},
      {"smiles": "Cc1ccccc1C1COC(c2c(F)cccc2F)=N1", "note": "(stereo not given)", "LC50": 182},
      {"smiles": "CCCCCCCCCCc1ccc(C2COC(c3c(F)cccc3F)=N2)c(Cl)c1", "note": "(stereo not given)", "LC50": 1.15},
      {"smiles": "CCCCCCCCCCCCc1ccc(C2COC(c3c(F)cccc3F)=N2)c(F)c1", "note": "(stereo not given)", "LC50": 0.112},
      {"smiles": "CC(C)Cc1ccc(C2COC(c3c(F)cccc3F)=N2)cc1", "note": "(stereo not given)", "LC50": 0.00159},
      {"smiles": "Fc1cccc(F)c1C1=NC(c2cccc(Cl)c2)CO1", "note": "(stereo not given)", "LC50": 17},
      {"smiles": "Fc1cccc(F)c1C1=NC(c2ccc(Cl)cc2)CO1", "note": "(stereo not given)", "LC50": 0.017},
      {"smiles": "CCCCCCCCOc1ccc(C2COC(c3c(F)cccc3F)=N2)cc1", "note": "(stereo not given)", "LC50": 0.00129},
      {"smiles": "C[Si](C)(C)c1ccc(C2COC(c3c(F)cccc3F)=N2)cc1", "note": "(stereo not given)", "LC50": 0.00151},
      {"smiles": "CC(C)c1ccc(C2COC(c3c(F)cccc3F)=N2)cc1", "note": "(stereo not given)", "LC50": 0.0166},
      {"smiles": "CCCCCCCCCCCCc1ccc(C2COC(c3c(F)cccc3F)=N2)cc1", "note": "(stereo not given)", "LC50": 0.00118},
      {"smiles": "CCOc1cc(F)ccc1C1COC(c2c(F)cccc2F)=N1", "note": "(stereo not given)", "LC50": 0.0155},
      {"smiles": "CCc1cccc(C2COC(c3c(F)cccc3F)=N2)c1", "note": "(stereo not given)", "LC50": 174},
      {"smiles": "CCCCCCc1ccc(C2COC(c3c(F)cccc3F)=N2)c(Cl)c1", "note": "(stereo not given)", "LC50": 0.00132},
      {"smiles": "Fc1cccc(F)c1C1=NC(c2ccc(Cl)cc2Cl)CO1", "note": "(stereo not given)", "LC50": 0.151},
      {"smiles": "CCOc1cc(C(C)(C)C)ccc1C1COC(c2c(F)cccc2F)=N1", "note": "(stereo not given) [ETOXAZOLE]", "LC50": 0.0138},
      {"smiles": "COc1cc(Cl)ccc1C1COC(c2c(F)cccc2F)=N1", "note": "(stereo not given)", "LC50": 1.55},
      {"smiles": "CC(C)(C)c1ccc(C2COC(c3c(F)cccc3F)=N2)cc1", "note": "(stereo not given)", "LC50": 0.00159},
      {"smiles": "Fc1ccccc1C1COC(c2c(F)cccc2F)=N1", "note": "(stereo not given)", "LC50": 18.2},
      {"smiles": "CCCCCCCCc1ccc(C2COC(c3c(F)cccc3F)=N2)cc1", "note": "(stereo not given)", "LC50": 0.00135},
      {"smiles": "Fc1ccc(C2COC(c3c(F)cccc3F)=N2)c(F)c1", "note": "(stereo not given)", "LC50": 0.17},
      {"smiles": "COc1cc(C(C)(C)C)ccc1C1COC(c2c(F)cccc2F)=N1", "note": "(stereo not given)", "LC50": 0.0144},
      {"smiles": "CC(C)Sc1ccc(C2COC(c3c(F)cccc3F)=N2)cc1", "note": "(stereo not given)", "LC50": 1.51},
      {"smiles": "Fc1cc(C2COC(c3c(F)cccc3F)=N2)ccc1Cl", "note": "(stereo not given)", "LC50": 0.162},
      {"smiles": "CCCCCCCCCCCCc1ccc(C2COC(c3c(F)cccc3F)=N2)c(Cl)c1", "note": "(stereo not given)", "LC50": 1.07},
      {"smiles": "CCCCCCCCCCc1ccc(C2COC(c3c(F)cccc3F)=N2)c(F)c1", "note": "(stereo not given)", "LC50": 0.012},
      {"smiles": "Cc1ccc(C2COC(c3c(F)cccc3F)=N2)c(C)c1", "note": "(stereo not given)", "LC50": 174},
      {"smiles": "CCOc1cc(Cl)ccc1C1COC(c2c(F)cccc2F)=N1", "note": "(stereo not given)", "LC50": 1.48},
      {"smiles": "CCCCCCCCCCc1ccc(C2COC(c3c(F)cccc3F)=N2)c(OC)c1", "note": "(stereo not given)", "LC50": 0.117},
      {"smiles": "CCCCCCCCCSc1ccc(C2COC(c3c(F)cccc3F)=N2)cc1", "note": "(stereo not given)", "LC50": 0.12},
      {"smiles": "COc1cccc(C2COC(c3c(F)cccc3F)=N2)c1", "note": "(stereo not given)", "LC50": 17.4},
      {"smiles": "CC(C)Cc1ccc(C2COC(c3c(F)cccc3F)=N2)c(Cl)c1", "note": "(stereo not given)", "LC50": 0.00145},
      {"smiles": "CCCCc1ccc(C2COC(c3c(F)cccc3F)=N2)cc1", "note": "(stereo not given)", "LC50": 0.00159},
      {"smiles": "CCOc1cc(Br)ccc1C1COC(c2c(F)cccc2F)=N1", "note": "(stereo not given)", "LC50": 1.32},
      {"smiles": "COc1cc(F)ccc1C1COC(c2c(F)cccc2F)=N1", "note": "(stereo not given)", "LC50": 1.62},
      {"smiles": "CCCCCCc1ccc(C2COC(c3c(F)cccc3F)=N2)c(F)c1", "note": "(stereo not given)", "LC50": 0.00138},
      {"smiles": "CCCCOc1cc(F)ccc1C1COC(c2c(F)cccc2F)=N1", "note": "(stereo not given)", "LC50": 0.00145},
      {"smiles": "Cc1cc(Cl)ccc1C1COC(c2c(F)cccc2F)=N1", "note": "(stereo not given)", "LC50": 1.62},
      {"smiles": "CCCCCCc1ccc(C2COC(c3c(F)cccc3F)=N2)cc1Cl", "note": "(stereo not given)", "LC50": 1.32},
      {"smiles": "CCc1ccccc1C1COC(c2c(F)cccc2F)=N1", "note": "(stereo not given)", "LC50": 17.4},
      {"smiles": "CCCCCCCCCCc1ccc(C2COC(c3c(F)cccc3F)=N2)cc1", "note": "(stereo not given)", "LC50": 0.00126},
      {"smiles": "Fc1cccc(F)c1C1=NC(c2ccc(C(F)(F)F)cc2)CO1", "note": "(stereo not given)", "LC50": 0.151},
      {"smiles": "CCc1ccc(C2COC(c3c(F)cccc3F)=N2)cc1", "note": "(stereo not given)", "LC50": 0.0174},
      {"smiles": "CCCCCCCCCCOc1ccc(C2COC(c3c(F)cccc3F)=N2)cc1", "note": "(stereo not given)", "LC50": 0.0012},
      {"smiles": "CCCCCCc1ccc(C2COC(c3c(F)cccc3F)=N2)cc1", "note": "(stereo not given)", "LC50": 0.00145},
      {"smiles": "COc1ccc(C2COC(c3c(F)cccc3F)=N2)cc1", "note": "(stereo not given)", "LC50": 17.4},
      {"smiles": "CCCCCc1ccc(C2COC(c3c(F)cccc3F)=N2)c(OCCC)c1", "note": "(stereo not given)", "LC50": 0.0129},
      {"smiles": "CCCCCCCCc1ccc(C2COC(c3c(F)cccc3F)=N2)c(C)c1", "note": "(stereo not given)", "LC50": 0.00129},
      {"smiles": "Fc1cc(Cl)ccc1C1COC(c2c(F)cccc2F)=N1", "note": "(stereo not given)", "LC50": 0.00162},
      {"smiles": "Fc1cccc(F)c1C1=NC(c2ccc(Br)cc2)CO1", "note": "(stereo not given)", "LC50": 0.0148},
      {"smiles": "Fc1ccc(C2COC(c3c(F)cccc3F)=N2)cc1F", "note": "(stereo not given)", "LC50": 1.7},
      {"smiles": "Fc1cccc(F)c1C1=NC(c2ccccc2)CO1", "note": "(stereo not given)", "LC50": 19.5},
      {"smiles": "CCCCOc1ccc(C2COC(c3c(F)cccc3F)=N2)cc1", "note": "(stereo not given)", "LC50": 0.00151},
      {"smiles": "Cc1ccc(C2COC(c3c(F)cccc3F)=N2)cc1", "note": "(stereo not given)", "LC50": 1.82},
      {"smiles": "Fc1cccc(C2COC(c3c(F)cccc3F)=N2)c1", "note": "(stereo not given)", "LC50": 18.2},
      {"smiles": "Fc1ccc(C2COC(c3c(F)cccc3F)=N2)cc1Cl", "note": "(stereo not given)", "LC50": 1.62},
      {"smiles": "CCCCCCCCc1ccc(C2COC(c3c(F)cccc3F)=N2)c(OC)c1", "note": "(stereo not given)", "LC50": 0.126},
      {"smiles": "Oc1ccc(C2COC(c3c(F)cccc3F)=N2)cc1", "note": "(stereo not given)", "LC50": 182},
      {"smiles": "CCCCCCCCCCCCCOc1ccc(C2COC(c3c(F)cccc3F)=N2)cc1", "note": "(stereo not given)", "LC50": 0.011},
      {"smiles": "COc1ccccc1C1COC(c2c(F)cccc2F)=N1", "note": "(stereo not given)", "LC50": 174},
      {"smiles": "CCCCCCOc1cc(C(C)(C)C)ccc1C1COC(c2c(F)cccc2F)=N1", "note": "(stereo not given)", "LC50": 1.2},
      {"smiles": "Fc1ccc(C2COC(c3c(F)cccc3F)=N2)cc1", "note": "(stereo not given)", "LC50": 1.82},
      {"smiles": "CCCCCCCCc1ccc(C2COC(c3c(F)cccc3F)=N2)c(F)c1", "note": "(stereo not given)", "LC50": 0.00129},
      {"smiles": "CCOc1cc(C(C)C)ccc1C1COC(c2c(F)cccc2F)=N1", "note": "(stereo not given)", "LC50": 0.145},
      {"smiles": "CCCOc1cc(C(C)(C)C)ccc1C1COC(c2c(F)cccc2F)=N1", "note": "(stereo not given)", "LC50": 0.0135},
      {"smiles": "CCCOc1cc(C(C)C)ccc1C1COC(c2c(F)cccc2F)=N1", "note": "(stereo not given)", "LC50": 0.00138},
      {"smiles": "CC(C)Oc1ccc(C2COC(c3c(F)cccc3F)=N2)cc1", "note": "(stereo not given)", "LC50": 0.0158},
      {"smiles": "CCOc1ccc(C2COC(c3c(F)cccc3F)=N2)cc1", "note": "(stereo not given)", "LC50": 0.0166},
      {"smiles": "CCCCCCc1ccc(C2COC(c3c(F)cccc3F)=N2)cc1F", "note": "(stereo not given)", "LC50": 1.38},
      {"smiles": "CCOc1ccccc1C1COC(c2c(F)cccc2F)=N1", "note": "(stereo not given)", "LC50": 166},
      {"smiles": "CCc1ccc(C2COC(c3c(F)cccc3F)=N2)c(Cl)c1", "note": "(stereo not given)", "LC50": 0.0155},
      {"smiles": "CCCCCCCCc1ccc(C2COC(c3c(F)cccc3F)=N2)c(Cl)c1", "note": "(stereo not given)", "LC50": 0.00123},
      {"smiles": "CCOc1cccc(C2COC(c3c(F)cccc3F)=N2)c1", "note": "(stereo not given)", "LC50": 16.6},
      {"smiles": "CN(C)c1ccc(C2COC(c3c(F)cccc3F)=N2)cc1", "note": "(stereo not given)", "LC50": 166},
      {"smiles": "CCCCCc1ccc(C2COC(c3c(F)cccc3F)=N2)c(OCC)c1", "note": "(stereo not given)", "LC50": 0.00135},
      {"smiles": "Fc1cccc(F)c1C1=NC(c2ccccc2Cl)CO1", "note": "(stereo not given)", "LC50": 1.7},
      {"smiles": "C[S+]([O-])c1ccc(C2COC(c3c(F)cccc3F)=N2)cc1", "note": "(stereo not given)", "LC50": 155},
      {"smiles": "Fc1cccc(F)c1C1=NC(c2ccc(OC(F)(F)F)cc2)CO1", "note": "(stereo not given)", "LC50": 0.0144},
      {"smiles": "Cc1ccc(C2COC(c3c(F)cccc3F)=N2)cc1C", "note": "(stereo not given)", "LC50": 17.4},
      {"smiles": "CCc1ccc(C2COC(c3c(F)cccc3F)=N2)c(F)c1", "note": "(stereo not given)", "LC50": 1.62},
      {"smiles": "CCCCCCCCCCCCCCOc1ccc(C2COC(c3c(F)cccc3F)=N2)cc1", "note": "(stereo not given)", "LC50": 0.107},
      {"smiles": "Cc1cccc(C2COC(c3c(F)cccc3F)=N2)c1", "note": "(stereo not given)", "LC50": 182},
      {"smiles": "CCCCCCCCCc1ccc(C2COC(c3c(F)cccc3F)=N2)c(OC)c1", "note": "(stereo not given)", "LC50": 0.012},
      {"smiles": "CCCCOc1cc(C(C)(C)C)ccc1C1COC(c2c(F)cccc2F)=N1", "note": "(stereo not given)", "LC50": 0.129},
      {"smiles": "CS(=O)(=O)c1ccc(C2COC(c3c(F)cccc3F)=N2)cc1", "note": "(stereo not given)", "LC50": 1480},
      {"smiles": "CCCCCCCCCCCCCCCc1ccc(C2COC(c3c(F)cccc3F)=N2)cc1", "note": "(stereo not given)", "LC50": 0.0107},
      {"smiles": "Fc1cccc(F)c1C1=NC(c2ccc(Cl)c(Cl)c2)CO1", "note": "(stereo not given)", "LC50": 1.51},
      {"smiles": "Fc1ccc(C2COC(c3c(F)cccc3F)=N2)c(Cl)c1", "note": "(stereo not given)", "LC50": 1.62}
    ]}
  ]
}
